Data reported in ChEMBL document CHEMBL1177733, “Mayamycin, a cytotoxic polyketide from a Streptomyces strain isolated from the marine sponge Halichondria panicea” (J Nat Prod, 2010).

What was measured:
Xanthomonas campestris = assay: Antibacterial activity against Xanthomonas campestris DSM 2405 after 14-16 hrs by microtiter plate assay; conditions: DSM 2405, 14-16 h
Pseudomonas aeruginosa = assay: Antibacterial activity against Pseudomonas aeruginosa DSM 50071 after 14-16 hrs by microtiter plate assay; conditions: DSM 50071, 14-16 h
Bacillus subtilis = assay: Antibacterial activity against Bacillus subtilis DSM 347 after 14-16 hrs by microtiter plate assay; conditions: DSM 347, 14-16 h
Cutibacterium acnes = assay: Antibacterial activity against Propionibacterium acnes DSM 1897 after 48 hrs by microtiter plate assay; assay type: functional, organism-based; conditions: DSM 1897, 48 h
Mammaliicoccus lentus = assay: Antibacterial activity against Staphylococcus lentus DSM 6672 after 14-16 hrs by microtiter plate assay; conditions: DSM 6672, 14-16 h
[1] = Cytotoxicity against human GXF251L cells after 24 hrs by propidium iodide monolayer assay; conditions: GXF 251L
[2] = Cytotoxicity against human MEXF 462NL cells by modified propidium iodide monolayer assay
[3] = Cytotoxicity against human LXFL529 cells after 24 hrs by propidium iodide monolayer assay; conditions: LXFL 529, 24 h
[4] = Cytotoxicity against human PAXF 1657L cells by modified propidium iodide monolayer assay
[5] = Cytotoxicity against human RXF 486L cells by modified propidium iodide monolayer assay
[6] = Cytotoxicity against human MAXF 401NL cells after 24 hrs by propidium iodide monolayer assay
Staphylococcus aureus = assay: Antibacterial activity against Staphylococcus aureus ATCC 12600 after 48 hrs by microtiter plate assay; assay type: functional, organism-based; conditions: ATCC 12600, 48 h
HT-29 = assay: Cytotoxicity against human HT-29 cells after 24 hrs by CellTiter-BlueCell viability assay; assay type: functional, cell-based; conditions: HT-29, 24 h
Dermabacter hominis = assay: Antibacterial activity against Dermabacter hominis DSM 7083 after 24 hrs by microtiter plate assay; conditions: DSM 7083, 24 h
[7] = tested on: Brevibacterium epidermidis; assay: Antibacterial activity against Brevibacterium epidermidis DSM 20660 after 14-16 hrs by microtiter plate assay; conditions: DSM 20660, 14-16 h

Work on O=C(N[C@H](CO)[C@H](O)c1ccc([N+](=O)[O-])cc1)C(Cl)Cl [CHLORAMPHENICOL] yielded an IC50 (Xanthomonas campestris) of 3.6 µM, an IC50 (Pseudomonas aeruginosa) of 27.3 µM and an IC50 (Bacillus subtilis) of 9 µM. For the same compound, the IC50 (Cutibacterium acnes) was 1 µM and the IC50 (Mammaliicoccus lentus) was 2.3 µM.
With COc1cccc2c1C(=O)c1c(O)c3c(c(O)c1C2=O)C[C@@](O)(C(=O)CO)C[C@@H]3O[C@H]1C[C@H](N)[C@H](O)[C@H](C)O1 [DOXORUBICIN] the IC50 [1] was less than 0.052 µM, the IC50 [2] was less than 0.052 µM and the IC50 [3] was less than 0.052 µM. For the same compound, the IC50 [4] was less than 0.052 µM, the IC50 [5] was no more than 0.052 µM and the IC50 [6] was less than 0.052 µM.
COc1c(N2C[C@@H]3CCCN[C@@H]3C2)c(F)cc2c(=O)c(C(=O)O)cn(C3CC3)c12 [MOXIFLOXACIN] showed an IC50 (Staphylococcus aureus) of 7.5 µM.
Compound CC/C(=C(\c1ccccc1)c1ccc(OCCN(C)C)cc1)c1ccccc1 [TAMOXIFEN] has an IC50 (HT-29) of 38.6 µM.
In the case of CN(C)[C@@H]1C(O)=C(C(N)=O)C(=O)[C@@]2(O)C(O)=C3C(=O)c4c(O)cccc4[C@@](C)(O)[C@H]3C[C@@H]12 [TETRACYCLINE], the IC50 (Dermabacter hominis) is reported as 1.2 µM and the IC50 [7] is reported as 13.9 µM.
